Results: ChEMBL document CHEMBL1156099, “Pyrazolo[1,5-a]pyrimidine-based inhibitors of HCV polymerase” (Bioorg Med Chem Lett, 2009)
Calls of active or inactive are those of the source. The calls are words filed in the database; no cut-off is given here.

What was measured:
[1] = Inhibition of HCV recombinant NS5B Cdelta21 RdRp expressed in Escherichia coli assessed as [3H]GTP incorporation after 3 hrs by scintillation proximity assay-based RNA polymerase assay; parameters: species or system Hepacivirus hominis
[2] = system: Hepatitis C virus; test: Antiviral activity against HCV infected in human hepatoma cells by RNA replicon assay; assay type: functional, organism-based; details: Hepacivirus hominis

SMILES	IC50 [1]	IC50 ([1]; read-out: IC50) [µM]	Activity [2]
c1ccc(COc2ccc(-c3cnc4c(-c5nnn[nH]5)cnn4c3C3CC3)cc2)cc1	Not Active	–	–
c1ccc(COc2ccc(-c3cnc4c(-c5ncn[nH]5)cnn4c3C3CCCCC3)cc2)cc1	–	5.7	–
CC(C)c1c(-c2ccc(OCc3ccccc3)cc2)cnc2c(-c3nnn[nH]3)cnn12	–	8.6	–
CC(C)Cc1c(-c2ccc(OCc3ccccc3)cc2)cnc2c(-c3nnn[nH]3)cnn12	–	6	–
CC(C)C[C@H](NC(=O)c1cnn2c(C3CCCCC3)c(-c3ccc(F)cc3)cnc12)C(=O)O	–	0.29	–
c1cc(-c2cnc3c(-c4nnn[nH]4)cnn3c2C2CCCCC2)ccc1OC1CCCCC1	–	0.4	–
c1ccc(COc2ccc(-c3cnc4c(-c5nnn[nH]5)cnn4c3C3CCSCC3)cc2)cc1	–	3.4	–
O=C(O)c1cc2nc(-c3ccc(Cl)cc3)cc(-c3ccc(Oc4ccccc4)cc3)n2n1	–	6	–
c1ccc(COc2ccc(-c3cnc4c(-c5nnn[nH]5)cnn4c3-c3ccccc3)cc2)cc1	Not Active	–	–
c1cc(COc2ccc(-c3cnc4c(-c5nnn[nH]5)cnn4c3C3CCCCC3)cc2)ccn1	–	0.71	–
O=C(N[C@H](Cc1ccc(O)cc1)C(=O)O)c1cnn2c(C3CCCCC3)c(-c3ccc(F)cc3)cnc12	–	0.96	–
c1ccc(COc2ccc(-c3cnc4c(-c5nnn[nH]5)cnn4c3C3CCOCC3)cc2)cc1	–	12	–
O=C(NO)c1cnn2c(C3CCCCC3)c(-c3ccc(OCc4ccccc4)cc3)cnc12	–	1.9	–
NCCCC[C@H](NC(=O)c1cnn2c(C3CCCCC3)c(-c3ccc(F)cc3)cnc12)C(=O)O	–	0.48	–
O=S1(=O)CCC(c2c(-c3ccc(OCc4ccccc4)cc3)cnc3c(-c4nnn[nH]4)cnn23)CC1	Not Active	–	–
COC(=O)c1cccc(COc2ccc(-c3cnc4c(-c5nnn[nH]5)cnn4c3C3CCCCC3)cc2)c1	–	0.22	–
CS(=O)(=O)c1cccc(-c2ccc(-c3cnc4c(-c5nnn[nH]5)cnn4c3C3CCCCC3)cc2)c1	–	0.93	–
COc1cccc(COc2ccc(-c3cnc4c(-c5nnn[nH]5)cnn4c3C3CCCCC3)cc2)c1	–	0.6	–
c1ccc(COc2ccc(-c3cnc4c(-c5nnn[nH]5)cnn4c3C3CCCCC3)cc2)cc1	–	0.45	Active
c1ccc(-c2ccc(-c3cnc4c(-c5nnn[nH]5)cnn4c3C3CCCCC3)cc2)cc1	–	2.8	–
COC(=O)c1ccc(COc2ccc(-c3cnc4c(-c5nnn[nH]5)cnn4c3C3CCCCC3)cc2)cc1	–	0.19	–
O=C(O)c1ccc2c(c1)nc(-c1ccoc1)n2C1CCCCC1	–	1.6	–
CC(C)CCc1c(-c2ccc(OCc3ccccc3)cc2)cnc2c(-c3nnn[nH]3)cnn12	–	4.6	–

SMILES	IC50 [1]	IC50 ([1]; read-out: IC50) [µM]	Activity [2]
O=C(O)c1cnn2c(C3CCCCC3)c(-c3ccc(F)cc3)cnc12	–	0.93	Active
Cn1nnnc1-c1cnn2c(C3CCCCC3)c(-c3ccc(OCc4ccccc4)cc3)cnc12	–	50	–
O=C(N[C@@H](Cc1c[nH]c2ccc(O)cc12)C(=O)O)c1cnn2c(C3CCCCC3)c(-c3ccc(F)cc3)cnc12	–	0.011	–
OCc1cnn2c(C3CCCCC3)c(-c3ccc(OCc4ccccc4)cc3)cnc12	–	12.5	–
O=C(O)c1cnn2c(C3CCCCC3)c(-c3ccc(OCc4ccccc4)cc3)cnc12	–	0.59	Active
Fc1ccc(-c2cnc3c(-c4nnn[nH]4)cnn3c2C2CCCCC2)cc1F	–	0.7	–
NC(=O)[C@H](Cc1c[nH]c2ccccc12)NC(=O)c1cnn2c(C3CCCCC3)c(-c3ccc(OCc4ccccc4)cc3)cnc12	–	0.09	–
O=C(N[C@H](Cc1c[nH]c2ccccc12)C(=O)O)c1cnn2c(C3CCCCC3)c(-c3ccc(F)cc3)cnc12	–	0.45	–
O=C(O)c1ccc2c(c1)nc(-c1ccc(OCc3ccccc3)cc1)n2C1CCCCC1	–	0.53	–
CS(=O)(=O)c1cccc(Oc2ccc(-c3cnc4c(-c5nnn[nH]5)cnn4c3C3CCCCC3)cc2)c1	–	0.2	–
O=C(N[C@@H](Cc1c[nH]c2ccccc12)C(=O)O)c1cnn2c(C3CCCCC3)c(-c3ccc(F)cc3)cnc12	–	0.02	–
Cc1c(-c2ccc(OCc3ccccc3)cc2)cnc2c(-c3nnn[nH]3)cnn12	–	12.5	–
O=C(NS(=O)(=O)c1ccccc1)c1cnn2c(C3CCCCC3)c(-c3ccc(OCc4ccccc4)cc3)cnc12	–	0.76	–
O=C(O)c1ccc(COc2ccc(-c3cnc4c(-c5nnn[nH]5)cnn4c3C3CCCCC3)cc2)cc1	–	0.042	–
O=C(Nc1nnn[nH]1)c1cnn2c(C3CCCCC3)c(-c3ccc(OCc4ccccc4)cc3)cnc12	–	0.67	–
O=C(N[C@@H](Cc1ccc(O)cc1)C(=O)O)c1cnn2c(C3CCCCC3)c(-c3ccc(F)cc3)cnc12	–	0.02	–
O=C(N[C@@H](Cc1ccccc1)C(=O)O)c1cnn2c(C3CCCCC3)c(-c3ccc(F)cc3)cnc12	–	2	–
COc1cccc(Oc2ccc(-c3cnc4c(-c5nnn[nH]5)cnn4c3C3CCCCC3)cc2)c1	–	0.4	–
FC(F)(F)c1cccc(COc2ccc(-c3cnc4c(-c5nnn[nH]5)cnn4c3C3CCCCC3)cc2)c1	–	0.4	–
CS(=O)(=O)NC(=O)c1cnn2c(C3CCCCC3)c(-c3ccc(OCc4ccccc4)cc3)cnc12	–	1.6	–
c1ccc(Oc2ccc(-c3cnc4c(-c5nnn[nH]5)cnn4c3C3CCCCC3)cc2)cc1	–	0.4	–
NC(=O)[C@H](Cc1ccc(O)cc1)NC(=O)c1cnn2c(C3CCCCC3)c(-c3ccc(F)cc3)cnc12	–	0.024	–
NC(=O)c1cnn2c(C3CCCCC3)c(-c3ccc(OCc4ccccc4)cc3)cnc12	Not Active	–	–
